Results from publication PMC9319270, “Combination of Six Individual Derivatives of the Pom-1 Antibiofilm Peptide Doubles Their Efficacy against Invasive and Multi-Resistant Clinical Isolates of the Pathogenic Yeast Candida albicans” (Pharmaceutics, 2022).
Where two headings read alike, the source gives them in different places.

What was measured:
[1] = test system: invasive C. albicans clinical isolates; type: cell-based, Candida albicans; conditions: 20 biofilm-forming isolates
Protocol: The antifungal effect of Pom-1A to Pom-1F on Candida spp. biofilm formation can be determined following the Clinical and Laboratory Standard Institute guidelines (M27-A3). For this, 2.5 × 10^3 yeast cells were incubated in 200 µL of RPMI-1640 medium supplemented with L-glutamine, fluconazole, amphotericin B, and Pom-1A to Pom-1F. Incubation was performed on flat-bottomed polystyrene microplates with 96 wells (Sarstedt AG & Co. KG, Nümbrecht, Germany) for 24 h at 37 °C without shaking. The subsequent treatment with crystal violet was originally developed by George O’Toole for bacteria and adapted to Candida biofilms. For this purpose, the planktonic phase was removed, and the wells were washed twice with 200 µL of demineralized water. The remaining biofilm cells were treated with 200 µL of 0.1% (w/v) crystal violet solution for 15 min. After removing the solution, they were washed again twice with 200 µL demineralized water, and the microtiter plates were dried for at least 24 h at 25 °C. The stain was dissolved with 200 µL of 30% acetic acid and transferred to a new plate after 15 min. The absorbance at 560 nm was measured using a Tecan Infinite F200 microplate reader (Tecan Group Ltd., Männedorf, Switzerland). The resulting data were evaluated against the untreated controls so that the efficacy of the agents could be determined.

[2] = test system: adenocarcinomic human alveolar basal epithelial cells A549; type: cell-based
Protocol: (§1) For the experiments, adenocarcinomic human alveolar basal epithelial cells A549 [69] and human dermal fibroblasts (HDFs) were used. Cultivation was performed in DMEM with FBS (10% (w/v), 15% (w/v)), MEM NEAAs (1% (w/v)), and penicillin–streptomycin (100 U*mL^−1, 1% (w/v)) at 37 °C in an incubator containing 5% CO2. A resazurin assay was used to detect the viability of the cells. Therefore, 2 × 10^4 cells per well of a 96-well plate were incubated in 200 µL DMEM with additives at 37 °C and 5% CO2. The medium was removed, and 100 µL of the medium and 100 µL of a peptide solution (2.5 µg/mL, 25 µg/mL) were added. After incubation for 24 h at 37 °C and 5% CO2, 20 µL of a resazurin solution (0.15 mg/mL) were added into each well, and the cells were incubated again for 24 h at 37 °C and 5% CO2. Fluorescence measurement (excitation wavelength—535 nm, emission wavelength—595 nm) of the resulting resorufin was then performed using a Tecan Infinite F200 microplate reader (Tecan Group Ltd., Männedorf, Switzerland).

[3] = test system: human dermal fibroblasts (HDFs); type: cell-based
Protocol: as §1

Compound: OC(Cn1cncn1)(Cn1cncn1)c1ccc(F)cc1F [fluconazole, Fluconazole]
- number of resistant isolates (biofilm detectable, inhibition lower than 100%) ([1]; fluconazole 8 µg/mL (w/v)): four

Compound: Triton X-100
- cell viability, A549 [2]: zero
- cell viability, HDF [3]: zero

Compound: C[C@@H]1[C@H](O)[C@@H](C)/C=C/C=C/C=C/C=C/C=C/C=C/C=C/[C@H](O[C@@H]2O[C@H](C)[C@@H](O)[C@H](N)[C@@H]2O)C[C@@H]2O[C@](O)(C[C@@H](O)C[C@@H](O)[C@H](O)CC[C@@H](O)C[C@@H](O)CC(=O)O[C@H]1C)C[C@H](O)[C@H]2C(=O)O [amphotericin B]
- number of resistant isolates (biofilm detectable, inhibition lower than 100%) ([1]; amphotericin B 2 µg/mL (w/v)): six
